{"source": "ChEMBL document CHEMBL2040829", "about": "“Highly regioselective synthesis of N-3 organophosphorous derivatives of 3,4-dihydropyrimidin-2(1H)-ones and their calcium channel binding studies” (Eur J Med Chem, 2012)", "assay": "Inhibition of calcium channel in pig carotid artery assessed as relaxation of KCl-induced vascular smooth muscle contraction", "data": [{"molecule": "COC(=O)C1=C(C)NC(C)=C(C(=O)OC)C1c1ccccc1[N+](=O)[O-]", "note": "[NIFEDIPINE]", "values": [{"measurement": "IC50", "result": 10, "unit": "nM"}]}]}
